Test results published in ChEMBL document CHEMBL1201862, “PubChem BioAssay data set” (2004).
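48-hour exposure; five concentrations; linearly interpolated endpoints. The concentration for 50% growth inhibition is given as GI50.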 Active and inactive are the calls of the source. Cut-off read from the data, not from the text of the source: active = GI50 up to about 1.1 µM and inactive = higher.

Tests used:
Assay in all cases: DTP human tumour cell line panel, 48 h
MOLT-4 = system: MOLT-4
786-0 = system: 786-0
OVCAR-3 = system: OVCAR-3
SK-OV-3 = system: SK-OV-3
HCT-116 = system: HCT-116
LXFL 529 = system: LXFL 529
SK-MEL-28 = system: SK-MEL-28
M19-MEL = system: M19-MEL
CCRF-CEM = system: CCRF-CEM
ACHN = system: ACHN
RPMI-8226 = system: RPMI-8226
UACC-62 = system: UACC-62
HCC 2998 = system: HCC 2998
K562 = system: K562
UACC-257 = system: UACC-257
A549 = system: A549
NCI-H226 = system: NCI-H226
TK-10 = system: TK-10
DLD-1 = system: DLD-1
DMS-273 = system: DMS-273
SR = system: SR
HL-60 = system: HL-60
HT-29 = system: HT-29
LOX IMVI = system: LOX IMVI
OVCAR-4 = system: OVCAR-4
SNB-19 = system: SNB-19
HOP-62 = system: HOP-62
SN12C = system: SN12C
U-251 = system: U-251
HOP-18 = system: HOP-18
OVCAR-8 = system: OVCAR-8
NCI-H23 = system: NCI-H23
M14 = system: M14
A498 = system: A498
KM-20L2 = system: KM-20L2
HCT-15 = system: HCT-15
CAKI-1 = system: CAKI-1
NCI-H460 = system: NCI-H460
SF-268 = system: SF-268
Malme-3M = system: Malme-3M
DMS-114 = system: DMS-114
SF-295 = system: SF-295
UO-31 = system: UO-31
SK-MEL-5 = system: SK-MEL-5
HOP-92 = system: HOP-92
SW-620 = system: SW-620
RXF 631 = system: RXF 631
IGROV-1 = system: IGROV-1
OVCAR-5 = system: OVCAR-5
COLO 205 = system: COLO 205
SK-MEL-2 = system: SK-MEL-2
SF-539 = system: SF-539
KM12 = system: KM12
XF498 = system: XF498
RXF 393 = system: RXF 393
EKVX = system: EKVX
SNB-75 = system: SNB-75
NCI-H522 = system: NCI-H522
SNB-78 = system: SNB-78

## OCC12C=CC(C1)c1ccccc12 (configuration not stated)
MOLT-4
  GI50: > 100 µM (inactive)
786-0
  GI50: > 100 µM (inactive)
OVCAR-3
  GI50: > 100 µM (inactive)
SK-OV-3
  GI50: > 100 µM (inactive)
HCT-116
  GI50: > 100 µM (inactive)
LXFL 529
  GI50: > 100 µM (inactive)
SK-MEL-28
  GI50: > 100 µM (inactive)
M19-MEL
  GI50: > 100 µM (inactive)
CCRF-CEM
  GI50: > 100 µM (inactive)
ACHN
  GI50: > 100 µM (inactive)
RPMI-8226
  GI50: > 100 µM (inactive)
UACC-62
  GI50: > 100 µM (inactive)
HCC 2998
  GI50: > 100 µM (inactive)
K562
  GI50: > 100 µM (inactive)
UACC-257
  GI50: > 100 µM (inactive)
A549
  GI50: > 100 µM (inactive)
NCI-H226
  GI50: > 100 µM (inactive)
TK-10
  GI50: > 100 µM (inactive)
DLD-1
  GI50: > 100 µM (inactive)
DMS-273
  GI50: > 100 µM (inactive)
SR
  GI50: > 100 µM (inactive)
HL-60
  GI50: > 100 µM (inactive)
HT-29
  GI50: > 100 µM (inactive)
LOX IMVI
  GI50: > 100 µM (inactive)
OVCAR-4
  GI50: > 100 µM (inactive)
SNB-19
  GI50: > 100 µM (inactive)
HOP-62
  GI50: > 100 µM (inactive)
SN12C
  GI50: > 100 µM (inactive)
U-251
  GI50: > 100 µM (inactive)
HOP-18
  GI50: > 100 µM (inactive)
OVCAR-8
  GI50: > 100 µM (inactive)
NCI-H23
  GI50: > 100 µM (inactive)
M14
  GI50: > 100 µM (inactive)
A498
  GI50: > 100 µM (inactive)
KM-20L2
  GI50: > 100 µM (inactive)
HCT-15
  GI50: > 100 µM
CAKI-1
  GI50: > 100 µM (inactive)
NCI-H460
  GI50: > 100 µM (inactive)
SF-268
  GI50: > 100 µM (inactive)
Malme-3M
  GI50: > 100 µM (inactive)
DMS-114
  GI50: > 100 µM (inactive)
SF-295
  GI50: > 100 µM (inactive)
UO-31
  GI50: > 100 µM (inactive)
SK-MEL-5
  GI50: > 100 µM (inactive)
HOP-92
  GI50: > 100 µM (inactive)
SW-620
  GI50: > 100 µM (inactive)
RXF 631
  GI50: > 100 µM (inactive)
IGROV-1
  GI50: > 100 µM (inactive)
OVCAR-5
  GI50: > 100 µM (inactive)
COLO 205
  GI50: > 100 µM (inactive)

## CCC1=C(C(C)=O)[C@@H]2CCCCC[C@@H](C(=O)OC)C2C1=O (some centres not stated)
MOLT-4
  GI50: > 100 µM (inactive)
786-0
  GI50: > 100 µM (inactive)
SK-OV-3
  GI50: > 100 µM (inactive)
HCT-116
  GI50: > 100 µM (inactive)
SK-MEL-2
  GI50: > 100 µM (inactive)
LXFL 529
  GI50: > 100 µM (inactive)
SK-MEL-28
  GI50: > 100 µM (inactive)
SF-539
  GI50: > 100 µM (inactive)
M19-MEL
  GI50: > 100 µM (inactive)
CCRF-CEM
  GI50: > 100 µM (inactive)
ACHN
  GI50: > 100 µM (inactive)
RPMI-8226
  GI50: > 100 µM (inactive)
UACC-62
  GI50: > 100 µM (inactive)
KM12
  GI50: > 100 µM (inactive)
HCC 2998
  GI50: > 100 µM (inactive)
K562
  GI50: > 100 µM (inactive)
UACC-257
  GI50: > 100 µM (inactive)
A549
  GI50: > 100 µM (inactive)
TK-10
  GI50: > 100 µM (inactive)
DLD-1
  GI50: > 100 µM (inactive)
DMS-273
  GI50: > 100 µM (inactive)
SR
  GI50: > 100 µM (inactive)
HL-60
  GI50: > 100 µM (inactive)
HT-29
  GI50: > 100 µM (inactive)
OVCAR-4
  GI50: > 100 µM (inactive)
SNB-19
  GI50: > 100 µM (inactive)
HOP-62
  GI50: > 100 µM (inactive)
XF498
  GI50: > 100 µM (inactive)
SN12C
  GI50: > 100 µM (inactive)
RXF 393
  GI50: > 100 µM (inactive)
U-251
  GI50: > 100 µM (inactive)
HOP-18
  GI50: 57.9 µM (inactive)
OVCAR-8
  GI50: > 100 µM (inactive)
NCI-H23
  GI50: > 100 µM (inactive)
M14
  GI50: > 100 µM (inactive)
A498
  GI50: > 100 µM (inactive)
EKVX
  GI50: > 100 µM (inactive)
KM-20L2
  GI50: > 100 µM (inactive)
HCT-15
  GI50: > 100 µM
CAKI-1
  GI50: > 100 µM (inactive)
NCI-H460
  GI50: > 100 µM (inactive)
SF-268
  GI50: > 100 µM (inactive)
Malme-3M
  GI50: > 100 µM (inactive)
DMS-114
  GI50: > 100 µM (inactive)
SNB-75
  GI50: > 100 µM (inactive)
SF-295
  GI50: > 100 µM (inactive)
UO-31
  GI50: > 100 µM (inactive)
SK-MEL-5
  GI50: > 100 µM (inactive)
HOP-92
  GI50: > 100 µM (inactive)
SW-620
  GI50: > 100 µM (inactive)
NCI-H522
  GI50: > 100 µM (inactive)
SNB-78
  GI50: > 100 µM (inactive)
IGROV-1
  GI50: > 100 µM (inactive)
OVCAR-5
  GI50: > 100 µM (inactive)
COLO 205
  GI50: > 100 µM (inactive)

## O=[N+]([O-])c1cccc(C2=NOC3C4CCC(C4)C23)c1 (configuration not stated)
MOLT-4
  GI50: > 100 µM (inactive)
786-0
  GI50: > 100 µM (inactive)
OVCAR-3
  GI50: > 100 µM (inactive)
SK-OV-3
  GI50: > 100 µM (inactive)
HCT-116
  GI50: > 100 µM (inactive)
SK-MEL-2
  GI50: > 100 µM (inactive)
LXFL 529
  GI50: > 100 µM (inactive)
SK-MEL-28
  GI50: > 100 µM (inactive)
SF-539
  GI50: > 100 µM (inactive)
M19-MEL
  GI50: > 100 µM (inactive)
ACHN
  GI50: > 100 µM (inactive)
RPMI-8226
  GI50: > 100 µM (inactive)
KM12
  GI50: > 100 µM (inactive)
HCC 2998
  GI50: > 100 µM (inactive)
UACC-257
  GI50: > 100 µM (inactive)
A549
  GI50: > 100 µM (inactive)
NCI-H226
  GI50: > 100 µM (inactive)
TK-10
  GI50: > 100 µM (inactive)
DLD-1
  GI50: > 100 µM (inactive)
DMS-273
  GI50: > 100 µM (inactive)
SR
  GI50: > 100 µM (inactive)
HT-29
  GI50: > 100 µM (inactive)
OVCAR-4
  GI50: > 100 µM (inactive)
HOP-62
  GI50: > 100 µM (inactive)
SN12C
  GI50: > 100 µM (inactive)
U-251
  GI50: > 100 µM (inactive)
HOP-18
  GI50: > 100 µM (inactive)
OVCAR-8
  GI50: > 100 µM (inactive)
NCI-H23
  GI50: > 100 µM (inactive)
M14
  GI50: > 100 µM (inactive)
A498
  GI50: > 100 µM (inactive)
HCT-15
  GI50: > 100 µM
NCI-H460
  GI50: > 100 µM (inactive)
SF-268
  GI50: > 100 µM (inactive)
Malme-3M
  GI50: > 100 µM (inactive)
DMS-114
  GI50: > 100 µM (inactive)
SNB-75
  GI50: > 100 µM (inactive)
SF-295
  GI50: > 100 µM (inactive)
UO-31
  GI50: > 100 µM (inactive)
SK-MEL-5
  GI50: > 100 µM (inactive)
HOP-92
  GI50: > 100 µM (inactive)
SW-620
  GI50: 22.3 µM (inactive)
NCI-H522
  GI50: > 100 µM (inactive)
RXF 631
  GI50: > 100 µM (inactive)
IGROV-1
  GI50: > 100 µM (inactive)
OVCAR-5
  GI50: > 100 µM (inactive)
COLO 205
  GI50: > 100 µM (inactive)
